{"source": "patent US20220117938A1", "about": "“COMBINATON THERAPY WITH A DON PRODRUG AND AN IMMUNE CHECKPOINT INHIBITOR” (DRACEN PHARMACEUTICALS, INC., priority 2019, published 2022)", "key": {"MC-38 tumors": {"test_system": "MC-38 tumors", "test": "Anti-tumor efficacy of Compound 1 with and without anti-PD-1 in the subcutaneous MC-38 model (Example 2D)", "type": "in vivo, Mus musculus", "details": "for MST: endpoint tumor volume 2000 mm^3; for T/C / TGI: day 16", "procedure": "Female C57BL/6 mice were inoculated subcutaneously at right flank with MC-38 cells for tumor development. Five days after tumor inoculation, 48 mice with tumor size ranging from 50-100 mm^3 (average tumor size 72 mm^3) were selected and assigned into six groups using stratified randomization with 8 mice per group based upon their tumor volumes. The treatments were started from the day of randomization (defined as D0), Group 1 was treated with Vehicle (Tween 80:Ethanol:Saline—5:5:90 v/v/v), s.c., qd×14, Group 2 was treated with Anti-PD-1 10 mg/kg i.p. q4d×4, Group 3 was treated with Compound 1 0.3 mg/kg s.c. q.d.×14, Group 4 was treated with Compound 1 0.3 mg/kg s.c. q.d.×14+Anti-PD-1 10 mg/kg i.p. q4d×4, Group 5 was treated with Compound 1 1 mg/kg s.c. q.d.×14, Group 6 was treated with Compound 1 1 mg/kg s.c. q.d.×14+Anti-PD-1 10 mg/kg i.p. q4d×4. The tumor sizes were measured three times per week during the treatment. The entire study was terminated on D37 after start of the treatment.\nAnimal Species: Mus musculus; Strain: […]; Age: 6-8 weeks; Sex: female; Body weight (at treatment start): 18-22 g.\nThe MC-38 tumor cells were maintained in vitro as a monolayer culture in DMEM medium supplemented with 10% heat inactivated fetal bovine serum and 100 μg/mL penicillin streptomycin at 37° C. in an atmosphere of 5% CO2 in air. The tumor cells were routinely subcultured twice weekly by trypsin-EDTA treatment. The cells growing to a confluency around 70%-80% were harvested and counted for tumor inoculation. The cultured MC-38 were harvested, re-suspended in base medium at a density of 1×10^7 cells/mL with viability >90%. Each mouse was inoculated subcutaneously at the right flank with 1×10^6 cells in 0.1 ml base medium for tumor development.\nThe treatments were started on day 5 after tumor inoculation when the tumor size reached 50-100 mm^3 (average tumor size 72 mm^3). Each group consisted of 8 tumor bearing mice.\nThe testing article was administrated at the dosing volume indicated to the mice according to the predetermined regimen as shown Table 2D-1. Testing article formulations were prepared according to standard procedures. Details regarding tumor measurements and endpoints, and statistical analysis are provided in EXAMPLE 3.\nTumor sizes were measured three times a week in two dimensions using a caliper, and the volume expressed in mm^3 using the formula: V=0.5 a×b^2 where a and b are the long and short diameters of the tumor, respectively. The tumor sizes were then used for the calculations of both tumor growth inhibition (TGI) and T/C values.\nTGI is calculated for each group using the formula: […]\nTVTreatment_DayN is the average tumor volume of a treatment group on a given day, TVTreatment_Day0 is the average tumor volume of the treatment group on the first day of treatment, TVVehicle_DayN is the average tumor volume of the vehicle control group on a given day, and TVVehicle_Day0 is the average tumor volume of the vehicle group on the first day of treatment.\nThe T/C value (in percent) is an indication of antitumor effectiveness, T/C (%)=RTVTreatment/RTVControl×100% (RTVTreatment: the mean RTV of the treatment group; RTVControl: the mean RTV of the vehicle treated group). RTV (relative tumor volume)=TVDayN/TVDay0. TVDayN and TVDay0 is the tumor volume on day N and Day 0 respectively. T/C (%)≤42% is considered as significant antitumor activity and <10% is considered as highly significant antitumor activity by the National Cancer Institute criteria.\nAnimal survival curve: When an individual animal reached to the termination endpoint (TV>2000 mm^3), the mouse was euthanized. The time from treatment initiation to the termination was deemed as its survival time. Survival curve was plotted by Kaplan-Meier method. Median survival time (MST) was calculated for each group. Increase of life span (ILS) was calculated according to the following formula: […]\nILS (%)>25% is considered as a biologically significant survival benefit. […]"}, "LK-2 tumors": {"test_system": "LK-2 tumors", "test": "Anti-tumor efficacy of Compound 1 in the LK-2 xenograft model (Example 13)", "type": "in vivo, mice", "procedure": "Female BALB/c nude mice were inoculated subcutaneously in the right flank with LK-2 cells for tumor development. Four days after tumor inoculation, mice with tumor sizes reaching approximately 171 mm^3 (range from 112 mm^3 to 222 mm^3) were selected and assigned into groups using stratified randomization with 8 mice per group based upon their tumor volumes. The treatments were started from the day of randomization (defined as D0), Group 1 was treated with Vehicle control, 10 ml/kg, IP, bid×19; Group 2 was treated with Compound 1, 1.4 mg/kg, SC, 5d ON, 2d OFF×2 cycles, followed Compound 1, 2.8 mg/kg, SC, 5d ON, 2 d OFF×1 cycle; Group 3 was treated with Compound 1, 7 mg/kg, IV, tiw (Mon, Wed, Fri)×3 cycles; and Group 4 was treated with Compound 1, 3.3 mg/kg, IV, tiw (Mon, Wed, Fri)×3 cycles. The tumor sizes were measured two times per week during the treatment. The entire study was terminated on D18 after start of the treatment. All treatments were well-tolerated without any adverse effects or significant body weight loss."}, "[1]": {"details": "Compound 1 0.3 mg/kg qd x 14, s.c."}, "[2]": {"details": "Group 2, 1.4 mg/kg SC 5 d ON 2 d OFF x2 cycles, then 2.8 mg/kg x1 cycle"}, "[3]": {"details": "Group 3, 7 mg/kg IV tiw x3 cycles"}, "[4]": {"details": "Group 4, 3.3 mg/kg IV tiw x3 cycles"}}}
{"smiles": "CC(=O)N[C@@H](Cc1c[nH]c2ccccc12)C(=O)N[C@@H](CCC(=O)C=[N+]=[N-])C(=O)OC(C)C", "note": "[Compound 1, Isopropyl (S)-2-((S)-2-acetamido-3-(1H-indol-3-yl)propanamido)-6-diazo-5-oxohexanoate]", "values": [{"measurement": "ILS", "setting": "MC-38 tumors; [1]", "result": 52.6, "unit": "%"}, {"measurement": "MST", "setting": "MC-38 tumors; [1]", "result": 29, "unit": "days"}, {"measurement": "ILS", "setting": "MC-38 tumors; Compound 1 1 mg/kg qd x 14, sc", "result": 65.8, "unit": "%"}, {"measurement": "MST", "setting": "MC-38 tumors; Compound 1 1 mg/kg qd x 14, sc", "result": 31.5, "unit": "days"}, {"measurement": "RTV at day 16", "setting": "MC-38 tumors; Cpd. 1 0.3 mg/kg qd x 14, s.c.", "result": "2.73 ± 0.37"}, {"measurement": "RTV at day 16", "setting": "MC-38 tumors; Cpd. 1 1 mg/kg qd x 14, sc", "result": "0.40 ± 0.11"}, {"measurement": "T/C", "setting": "MC-38 tumors; Cpd. 1 0.3 mg/kg qd x 14, s.c.", "result": 14.06, "unit": "%"}, {"measurement": "TGI", "setting": "MC-38 tumors; Cpd. 1 0.3 mg/kg qd x 14, s.c.", "result": 90.53, "unit": "%"}, {"measurement": "T/C", "setting": "MC-38 tumors; Cpd. 1 1 mg/kg qd x 14, sc", "result": 2.08, "unit": "%"}, {"measurement": "TGI", "setting": "MC-38 tumors; Cpd. 1 1 mg/kg qd x 14, sc", "result": 103.26, "unit": "%"}, {"measurement": "RTV at day 11", "setting": "LK-2 tumors; [2]", "result": "8.13 ± 1.31"}, {"measurement": "T/C", "setting": "LK-2 tumors; [2]", "result": 84.34, "unit": "%"}, {"measurement": "TGI", "setting": "LK-2 tumors; [2]", "result": 19.84, "unit": "%"}, {"measurement": "Tumor Size at day 14", "setting": "LK-2 tumors; [2]", "result": "1359 ± 207", "unit": "mm^3"}, {"measurement": "Tumor volume", "setting": "LK-2 tumors; Group 2, 1.4 mg/kg SC 5 d ON 2 d OFF x2 cycles, then 2.8 mg/kg x1 cycle, day 0", "result": "171 ± 10", "unit": "mm^3"}, {"measurement": "Tumor volume", "setting": "LK-2 tumors; Group 2, 1.4 mg/kg SC 5 d ON 2 d OFF x2 cycles, then 2.8 mg/kg x1 cycle, day 2", "result": "207 ± 19", "unit": "mm^3"}, {"measurement": "Tumor volume", "setting": "LK-2 tumors; Group 2, 1.4 mg/kg SC 5 d ON 2 d OFF x2 cycles, then 2.8 mg/kg x1 cycle, day 4", "result": "217 ± 24", "unit": "mm^3"}, {"measurement": "Tumor volume", "setting": "LK-2 tumors; Group 2, 1.4 mg/kg SC 5 d ON 2 d OFF x2 cycles, then 2.8 mg/kg x1 cycle, day 7", "result": "419 ± 81", "unit": "mm^3"}, {"measurement": "Tumor volume", "setting": "LK-2 tumors; Group 2, 1.4 mg/kg SC 5 d ON 2 d OFF x2 cycles, then 2.8 mg/kg x1 cycle, day 10", "result": "780 ± 128", "unit": "mm^3"}, {"measurement": "Tumor volume", "setting": "LK-2 tumors; Group 2, 1.4 mg/kg SC 5 d ON 2 d OFF x2 cycles, then 2.8 mg/kg x1 cycle, day 14", "result": "1359 ± 207", "unit": "mm^3"}, {"measurement": "RTV at day 11", "setting": "LK-2 tumors; [3]", "result": "6.29 ± 0.75"}, {"measurement": "T/C", "setting": "LK-2 tumors; [3]", "result": 65.30, "unit": "%"}, {"measurement": "TGI", "setting": "LK-2 tumors; [3]", "result": 40.73, "unit": "%"}, {"measurement": "Tumor Size at day 14", "setting": "LK-2 tumors; [3]", "result": "1050 ± 113", "unit": "mm^3"}, {"measurement": "Tumor volume", "setting": "LK-2 tumors; Group 3, 7 mg/kg IV tiw x3 cycles, day 0", "result": "171 ± 11", "unit": "mm^3"}, {"measurement": "Tumor volume", "setting": "LK-2 tumors; Group 3, 7 mg/kg IV tiw x3 cycles, day 2", "result": "196 ± 9", "unit": "mm^3"}, {"measurement": "Tumor volume", "setting": "LK-2 tumors; Group 3, 7 mg/kg IV tiw x3 cycles, day 4", "result": "213 ± 8", "unit": "mm^3"}, {"measurement": "Tumor volume", "setting": "LK-2 tumors; Group 3, 7 mg/kg IV tiw x3 cycles, day 7", "result": "256 ± 13", "unit": "mm^3"}, {"measurement": "Tumor volume", "setting": "LK-2 tumors; Group 3, 7 mg/kg IV tiw x3 cycles, day 10", "result": "483 ± 44", "unit": "mm^3"}, {"measurement": "Tumor volume", "setting": "LK-2 tumors; Group 3, 7 mg/kg IV tiw x3 cycles, day 14", "result": "1050 ± 113", "unit": "mm^3"}, {"measurement": "Tumor volume", "setting": "LK-2 tumors; Group 3, 7 mg/kg IV tiw x3 cycles, day 17", "result": "1565 ± 175", "unit": "mm^3"}, {"measurement": "RTV at day 11", "setting": "LK-2 tumors; [4]", "result": "7.66 ± 0.88"}, {"measurement": "T/C", "setting": "LK-2 tumors; [4]", "result": 79.51, "unit": "%"}, {"measurement": "TGI", "setting": "LK-2 tumors; [4]", "result": 24.13, "unit": "%"}, {"measurement": "Tumor Size at day 14", "setting": "LK-2 tumors; [4]", "result": "1294 ± 172", "unit": "mm^3"}, {"measurement": "Tumor volume", "setting": "LK-2 tumors; Group 4, 3.3 mg/kg IV tiw x3 cycles, day 0", "result": "170 ± 10", "unit": "mm^3"}, {"measurement": "Tumor volume", "setting": "LK-2 tumors; Group 4, 3.3 mg/kg IV tiw x3 cycles, day 2", "result": "193 ± 6", "unit": "mm^3"}, {"measurement": "Tumor volume", "setting": "LK-2 tumors; Group 4, 3.3 mg/kg IV tiw x3 cycles, day 4", "result": "211 ± 6", "unit": "mm^3"}, {"measurement": "Tumor volume", "setting": "LK-2 tumors; Group 4, 3.3 mg/kg IV tiw x3 cycles, day 7", "result": "374 ± 47", "unit": "mm^3"}, {"measurement": "Tumor volume", "setting": "LK-2 tumors; Group 4, 3.3 mg/kg IV tiw x3 cycles, day 10", "result": "577 ± 68", "unit": "mm^3"}, {"measurement": "Tumor volume", "setting": "LK-2 tumors; Group 4, 3.3 mg/kg IV tiw x3 cycles, day 14", "result": "1294 ± 172", "unit": "mm^3"}]}
